Data published in ChEMBL document CHEMBL1132839, “Substituted 3-(2-benzoxazyl)-benzimidazol-2-(1H)-ones: a new class of GABA(A) brain receptor ligands” (Bioorg Med Chem Lett, 2000).
pIC50, pKi: −log10 of the molar value.

The compounds below were run against GABA-A receptor; anion channel (assay: Inhibition of GABA-A benzodiazepine receptor).
Format: protein-complex assay

pIC50	SMILES
6.85	O=C1NC2CCCCCC2N1c1nc2cc(Cl)ccc2o1 (stereo not given)

Each compound was assayed against GABA-A receptor; anion channel (assay: Binding affinity against GABA-A benzodiazepine receptor).
Format: protein-complex assay

SMILES	pKi
O=C1NC2CCCCCC2N1c1nc2ccc(F)c(F)c2o1 (stereo not given)	8.52
O=C1NC2CCCCCC2N1c1nc2ccccc2o1 (stereo not given)	8.10
Oc1nc2c(n1-c1nc3ccc(F)c(F)c3o1)CCCC2	7.68
Oc1nc2c(n1-c1nc3cccc(F)c3o1)CCCC2	7.28
O=C1NC2CCCCCC2N1c1nc2ncccc2o1 (stereo not given)	6.86
Cn1c(=O)n(-c2nc3ccccc3o2)c2ccccc21	< 5.00
O=C1NC2CCCCC2N1c1nc2ncccc2o1 (stereo not given)	< 6.00
O=C1NC2CCCCCC2N1c1nc2cc(F)c(F)cc2o1 (stereo not given)	7.06
O=C1NC2CCCCCC2N1c1nc2c(F)cc(F)cc2o1 (stereo not given)	7.19
Oc1nc2ccccc2n1-c1nc2ccccc2s1	< 5.00
O=C1NC2CCCCCC2N1c1nc2cc(F)cc(F)c2o1 (stereo not given)	8.15
O=C1NC2CCCCCC2N1c1nc2cccc(F)c2o1 (stereo not given)	8.30
Oc1nc2ccccc2c2nc(-c3ccccc3)nn12	8.40
Cc1ccc2oc(N3C(=O)NC4CCCCCC43)nc2c1 (stereo not given)	7.82
Oc1nc2cccnc2n1-c1nc2ccccc2o1	6.14
Oc1nc2c(n1-c1nc3ccccc3o1)CCCC2	7.25
COc1ccc2oc(N3C(=O)NC4CCCCCC43)nc2c1 (stereo not given)	7.60
Cc1ccc2nc(N3C(=O)NC4CCCCCC43)oc2c1 (stereo not given)	6.80
O=C1NC2CCCCCC2N1c1nc2ccc(F)cc2o1 (stereo not given)	8.30
O=C1NC2CCCCCC2N1c1nc2cc(F)ccc2o1 (stereo not given)	8.30
COc1ccc2oc(-n3c(O)nc4c3CCCC4)nc2c1	7.09
COc1ccc2nc(-n3c(O)nc4c3CCCC4)oc2c1	6.62
COc1ccc2nc(N3C(=O)NC4CCCCCC43)oc2c1 (stereo not given)	6.60

Further lines, results first:

pKi	SMILES
7.70	Oc1nc2ccccc2n1-c1nc2ccc(F)c(F)c2o1
7.85	Oc1nc2cc(F)ccc2n1-c1nc2cccc(F)c2o1
7.60	Oc1nc2cc(F)ccc2n1-c1nc2ccc(F)cc2o1
7.33	Oc1nc2c(n1-c1nc3ccc(F)cc3o1)CCCC2
7.49	Oc1nc2cc(F)ccc2n1-c1nc2ccccc2o1
7.24	Oc1nc2ccc(F)cc2n1-c1nc2ccccc2o1
7.59	Oc1nc2c(n1-c1nc3cc(F)ccc3o1)CCCC2
7.82	Oc1nc2ccc(F)cc2n1-c1nc2cccc(F)c2o1
6.52	Cc1ccc2nc(-n3c(O)nc4ccccc43)oc2c1
7.36	Oc1nc2ccccc2n1-c1nc2ncccc2o1
6.79	Oc1nc2ccccc2n1-c1nc2cc(F)ccc2o1
6.21	COc1ccc2nc(-n3c(O)nc4ccccc43)oc2c1
7.27	Oc1nc2ccccc2n1-c1nc2ccccc2o1
7.04	COc1ccc2oc(-n3c(O)nc4ccccc43)nc2c1
7.05	Oc1nc2ccccc2n1-c1nc2ccc(F)cc2o1
7.41	Oc1nc2ccccc2n1-c1nc2cccc(F)c2o1
